The target of one experiment is COX-1 (Homo sapiens, UniProt P23219). Description: Human whole blood assay, COX-1 (clotting-induced TxB2 production). The arrangement: platelets in whole blood contain a large amount of the COX-1 enzyme; from tissue; host or cells: fresh human whole blood (platelets), allowed to clot. Conditions: clotting-induced TxB2, 1 hour at 37° C, read-out: COX-1 (IC50 μM) HWB. Format: cell-based. As to the method: Human whole blood provides a protein and cell-rich milieu appropriate for the study of biochemical efficacy of anti-inflammatory compounds such as selective COX-2 inhibitors. […] This is consistent with the observation that COX-2 inhibitors have no effect on PGE2 production in normal blood. These inhibitors are active only after incubation of human whole blood with LPS, which induces COX-2. This assay can be used to evaluate the inhibitory effect of selective COX-2 inhibitors on PGE2 production. As well, platelets in whole blood contain a large amount of the COX-1 enzyme. Immediately following blood clotting, platelets are activated through a thrombin-mediated mechanism. This reaction results in the production of thromboxane B2 (TxB2) via activation of COX-1. Thus, the effect of test compounds on TxB2 levels following blood clotting can be examined and used as an index for COX-1 activity. Therefore, the degree of selectivity by the test compound can be determined by measuring the levels of PGE2 after LPS induction (COX-2) and […] following blood clotting (COX-1) in the same assay.
Sequence of COX-1 (P23219 24-599): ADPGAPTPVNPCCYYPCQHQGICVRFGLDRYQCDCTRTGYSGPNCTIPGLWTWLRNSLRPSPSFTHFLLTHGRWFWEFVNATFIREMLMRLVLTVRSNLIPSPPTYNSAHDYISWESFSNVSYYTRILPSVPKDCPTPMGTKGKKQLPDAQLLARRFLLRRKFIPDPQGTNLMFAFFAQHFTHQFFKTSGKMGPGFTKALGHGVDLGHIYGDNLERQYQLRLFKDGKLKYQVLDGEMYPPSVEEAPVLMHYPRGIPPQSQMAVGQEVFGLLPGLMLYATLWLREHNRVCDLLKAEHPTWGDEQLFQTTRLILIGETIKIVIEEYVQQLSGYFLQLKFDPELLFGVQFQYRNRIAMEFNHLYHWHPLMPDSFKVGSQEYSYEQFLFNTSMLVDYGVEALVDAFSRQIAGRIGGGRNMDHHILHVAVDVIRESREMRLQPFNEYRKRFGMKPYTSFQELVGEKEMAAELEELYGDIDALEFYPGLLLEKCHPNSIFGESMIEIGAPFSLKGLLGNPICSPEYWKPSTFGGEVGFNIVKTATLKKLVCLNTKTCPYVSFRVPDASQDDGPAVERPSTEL
B. COX-1 (Clotting-induced TxB2 production)
Fresh blood is collected into vacutainers containing no anticoagulants. […] The tubes are vortexed and incubated at 37° C. for 1 hour to allow blood to clot. At the end of incubation, serum is obtained by centrifugation (12,000×g for 5 min.). A 100 μL aliquot of serum is mixed with 400 μL of methanol for protein precipitation. The supernatant is obtained and is assayed for T×B2 using a enzyme immunoassay kit (Cayman, #519031) according to the manufacturer's instruction.

The target of another experiment is T1, COX-2 (Homo sapiens, UniProt P35354).
T1 sequence (P35354 18-604): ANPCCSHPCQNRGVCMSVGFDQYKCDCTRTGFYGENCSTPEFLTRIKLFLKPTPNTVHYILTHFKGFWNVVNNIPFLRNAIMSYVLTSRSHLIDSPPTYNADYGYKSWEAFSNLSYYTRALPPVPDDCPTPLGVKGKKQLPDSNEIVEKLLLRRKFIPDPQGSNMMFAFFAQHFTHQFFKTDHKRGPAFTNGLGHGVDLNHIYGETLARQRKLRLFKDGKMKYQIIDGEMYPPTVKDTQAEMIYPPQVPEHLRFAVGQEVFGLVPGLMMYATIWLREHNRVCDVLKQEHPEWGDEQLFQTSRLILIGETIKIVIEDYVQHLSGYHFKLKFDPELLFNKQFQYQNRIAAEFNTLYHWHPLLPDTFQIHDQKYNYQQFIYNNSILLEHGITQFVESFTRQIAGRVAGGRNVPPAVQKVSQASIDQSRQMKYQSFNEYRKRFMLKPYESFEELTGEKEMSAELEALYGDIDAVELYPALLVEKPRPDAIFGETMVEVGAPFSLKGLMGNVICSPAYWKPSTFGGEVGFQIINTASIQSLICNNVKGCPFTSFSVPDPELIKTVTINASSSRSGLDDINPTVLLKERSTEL
Put plainly: Human whole blood assay, COX-2 (LPS-induced PGE2 production). Format: cell-based. Conditions: LPS-induced PGE2, 24 hours at 37° C, read-out: COX-2 (IC50 μM) HWB. Also noted: incubation of human whole blood with LPS, which induces COX-2; from tissue; host or cells: fresh human whole blood (volunteers), incubated with LPS. The text has this:
As well, platelets in whole blood contain a large amount of the COX-1 enzyme. Immediately following blood clotting, platelets are activated through a thrombin-mediated mechanism. This reaction results in the production of thromboxane B2 (TxB2) via activation of COX-1. Thus, the effect of test compounds on TxB2 levels following blood clotting can be examined and used as an index for COX-1 activity. Therefore, the degree of selectivity by the test compound can be determined by measuring the levels of PGE2 after LPS induction (COX-2) and […] following blood clotting (COX-1) in the same assay.
A. COX-2 (LPS-induced PGE2 production)
Fresh blood is collected in heparinized tubes by venipuncture from both male and female volunteers. The subjects have no apparent inflammatory conditions and have not taken any NSAIDs for at least 7 days prior to blood collection. Plasma is immediately obtained from a 2mL blood aliquot to use as blank (basal levels of PGE2). The remaining blood is incubated with LPS (100 μg/ml final concentration, Sigma Chem, #L-2630 from E. coli; diluted in 0.1% BSA (Phosphate buffered saline) for 5 minutes at room temperature. Five hundred μL aliquots of blood are incubated with either 2μL of vehicle (DMSO) or 2 μL of a test compound at final concentrations varying from 10nM to 30 μM for 24 hours at 37° C. At the end of the incubation, the blood is centrifuged at 12,000×g for 5 minutes to obtain plasma. A 100 μL aliquot of plasma is mixed with 400 μL of methanol for protein precipitation. The supernatant is obtained and is assayed for PGE2 using a radioimmunoassay kit (Amersham, RPA#530) after conversion of PGE2 to its methyl oximate derivative according to the manufacturer's procedure. […]

With `CS(=O)(=O)c1ccc(-c2cnn(Cc3ccccc3)c(=O)c2-c2cccnc2)cc1` [Example 28, 2-Benzyl-5-(4-methylsulfonyl)phenyl-4-(3-pyridyl)-2H-pyridazin-3-one], the figures for the IC50 at COX-1 and at COX-2 were 56 µM and 1.5 µM, respectively.

The term IC50 denotes the concentration needed to halve the response being measured.

(Values after patent US6004960A, “Pyridazinones as inhibitors of cyclooxygenase-2” (Merck Frosst Canada, Inc., priority 1998, dated 1999).)
